This passage reports TGI results from PubChem BioAssay (NCI).

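The compound was tested at five concentrations on cells cultured in 96-well plates, with a 48-hour exposure period. TGI is the concentration that stops growth completely.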

Test in all cases: growth of human tumour cells (NCI), 48 h
The subject of experiment [1] is KM12 colon.
The test system of experiment [2] is SF-539 CNS.
In experiment [3] the test system is UACC-257 melanoma.
Experiment [4] relates to HOP-62 NSCLC.
Experiment [5] concerns NCI-H460 lung.
For experiment [6], the system named is COLO 205 colon.
Experiment [7] concerns RPMI-8226 leukemia.
In experiment [8] the test system is SW-620 colon.
Experiment [9] deals with RXF 393 renal.
The test system of experiment [10] is SF-295 CNS.
For experiment [11], the system named is SR leukemia.

Turning to `CC(=O)c1sc2c(c1OC(=O)c1ccccc1)c(=O)n(-c1ccccc1)c(=S)n2-c1ccccc1`, the TGI was 92.3 µM in experiment [1]; 5.65 µM in experiment [2]; more than 23.9 µM in experiment [3]; 45.9 µM in experiment [4]; more than 59.5 µM in [5]; 30.1 µM in experiment [6]. In addition, the TGI in experiment [7] was 7.32 µM; in experiment [8], more than 82.6 µM; in experiment [9], 7.21 µM; in experiment [10], 16.7 µM.

`COc1cc2c(c(OC)c1)C(=O)C(=O)C(CC1(C)OCCCO1)=C2`: the TGI is 29.7 µM in experiment [1]; 32 µM in experiment [2]; 27.4 µM in experiment [3]; 32.6 µM in experiment [4]; 26.6 µM in [5]; 9.58 µM in experiment [6]. The TGI in experiment [7] is more than 100 µM; in [8], 3.23 µM; in [9] it was 8.71 µM; in experiment [10], 27.1 µM.

Regarding `CC(C)(Cl)C(Cl)CC/C(CBr)=C(\Cl)CBr` (stereo not given), the TGI stood at 6.08 µM in experiment [1]; 5.53 µM in [2]; 5.09 µM in [3]; 4.91 µM in experiment [4]; 8.21 µM in experiment [5]; 8.1 µM in experiment [6]. In addition, the TGI in experiment [8] is 3.28 µM; in experiment [9], 3.78 µM; in experiment [10], 16 µM.

Consider `CCOC(=O)C1=C(C)C2C3C(=O)OC(=O)C3C1(C)C1C(=O)OC(=O)C21` (stereo not given), for which the TGI in experiment [1], in experiment [2], in experiment [3], in experiment [4], in experiment [5] and in experiment [6] was more than 100 µM in each case. The TGI in experiment [7], in experiment [8], in experiment [9] and in [10] was more than 100 µM in each case.

In the case of `NC1C2C=CC(C2)C1C(=O)O` (stereo not given), the TGI in experiment [1], in experiment [2], in experiment [4], in experiment [6], in [7] and in experiment [8] was more than 100 µM throughout. The TGI in [9] and in [10] was more than 100 µM each time.

Consider `Oc1ccccc1CNCc1ccccc1O`, for which the TGI in [1], in experiment [2], in experiment [3], in experiment [4], in experiment [5] and in experiment [6] was more than 100 µM each time. The TGI in [7], in [8], in experiment [9] and in [10] was more than 100 µM in each case.

On to `Cc1nnc(N)nc1C/C=C/C(C)Sc1ccc(Cl)cc1` (stereo not given), for which the TGI in experiment [1] was 20.7 µM; in [3], 30.8 µM; in experiment [4], 25.4 µM; in [5] it was 30.3 µM; in [6] it was 49.8 µM; in [7], more than 70 µM. Moreover, the TGI was more than 48 µM in experiment [8], 22.2 µM in experiment [9] and 11.8 µM in experiment [10].

With `CCOC(OCC)[C@@H]1C[C@@H]2N(O[C@H](OC3CCCC3(c3ccccc3)c3ccccc3)[C@H](OC(C)=O)[C@@]2(CC)Cc2ccc(OC)c(OC)c2)O1` (stereo not given in full), the TGI in experiment [1], in [2], in experiment [3], in experiment [4], in [5] and in experiment [6] was more than 100 µM throughout. The TGI in [11], in experiment [8], in experiment [9] and in experiment [10] was more than 100 µM throughout.

Consider `Clc1ccc2c(c1)CC1C[N+]3=C(CCCCC3)C1=C2` (stereo not given), for which the TGI in [1] was more than 100 µM; in [3], 94.1 µM; in experiment [4], more than 100 µM; in experiment [5], more than 100 µM; in [6], more than 100 µM; in experiment [8], more than 100 µM. For the same compound, the TGI in experiment [9] and in experiment [10] was more than 100 µM in each case.

For the compound `CCOC(=O)NC(C(F)(F)F)(C(F)(F)F)P(=O)(OCC)OCC`, the TGI is more than 100 µM in [1]; more than 100 µM in experiment [4]; more than 100 µM in experiment [5]; more than 100 µM in [6]; 87.4 µM in experiment [7]; more than 100 µM in experiment [8]. Also, the results for the TGI in experiment [9] and in experiment [10] were 44.1 µM and more than 100 µM, respectively.

Regarding `O=C(O)C1Cc2[nH]c3ccccc3c2C2CCCC12` (stereo not given), the TGI in experiment [1], in experiment [2], in experiment [3], in experiment [5], in experiment [6] and in experiment [11] was more than 100 µM throughout. Further, the TGI in experiment [8] and in experiment [10] was more than 100 µM each time.

On to `CCCc1cn2c(/C=N/N=C(N)N)c(-c3ccc([N+](=O)[O-])cc3)nc2s1`, for which the TGI stood at 9.84 µM in [2]; 3.03 µM in experiment [3]; 3.16 µM in experiment [4]; 1.19 µM in [6]; 2.76 µM in experiment [7]; 2.16 µM in experiment [10].

For `CC(C)(C)C1CCC2c3c([nH]c4ccccc34)C3C(=O)N(c4cc(Cl)ccc4Cl)C(=O)C3C2C1` (stereo not given), the TGI in experiment [2], in experiment [3], in experiment [4], in [5], in experiment [6] and in experiment [7] was more than 100 µM throughout. Moreover, the TGI in [8], in experiment [9] and in experiment [10] was more than 100 µM in each case.

As for `CCCC1(N2C(=O)c3ccc4c5c(ccc(c35)C2=O)N(C2(CCC)CCCCC2)C4=O)CCCCC1`, the TGI in experiment [1], in experiment [2], in experiment [4], in [5], in experiment [6] and in experiment [7] was more than 100 µM throughout. The TGI in experiment [8], in [9] and in [10] was more than 100 µM in each case.

For `COc1cccc2c1C(=O)c1c(O)c3c(c(O)c1C2=O)CC(O)(C(C)=O)CC3OC1OC(COC(C)=O)C(OC(C)=O)C(OC(C)=O)C1OC(C)=O` (stereo not given), the TGI in experiment [1] was more than 100 µM; in [2], 39.7 µM; in [3], 36.6 µM; in [4], 33.2 µM; in [5] it was more than 100 µM; in [6] it was more than 100 µM. Further, the TGI in [11] is 25.8 µM; in experiment [8], more than 100 µM; in experiment [9] it was 7.25 µM; in [10], 62.8 µM.

For the compound `Cc1cc2nc3c(C#N)c4c(c(Cl)n3c2cc1C)CCC4`, the TGI is more than 100 µM in [1]; 49.5 µM in experiment [2]; more than 100 µM in experiment [3]; more than 100 µM in experiment [4]; more than 100 µM in [5]; more than 100 µM in [6]. For the same compound, the TGI in experiment [7] was 51 µM; in [8], 39.3 µM; in experiment [9], 32.1 µM; in [10], more than 100 µM.

For the compound `O=C1NC(NNc2ccccc2)=N/C1=C\c1ccco1`, the TGI was 54.6 µM in experiment [1]; 63.5 µM in [3]; more than 100 µM in [4]; 55 µM in experiment [5]; 25.1 µM in experiment [6]; 66 µM in experiment [7]. Also, the TGI in experiment [8] was 60.7 µM; in experiment [9], 28.6 µM; in [10] it was more than 100 µM.

Take `COc1c(N2CCCCC2)c2c(=O)c3ccccc3oc2c2c3ccccc3n(C)c12`: the TGI in experiment [1], in experiment [2], in experiment [3], in experiment [4], in [5] and in experiment [6] was more than 100 µM in each case. Moreover, the TGI in [7], in experiment [8], in experiment [9] and in experiment [10] was more than 100 µM in each case.

For `O=C(Cn1c2ccc(Br)cc2c2nc3ccccc3nc21)N1CCOCC1`, the TGI in experiment [1], in experiment [3], in [4], in [5], in experiment [6] and in experiment [7] was more than 100 µM throughout. Besides, the results for the TGI in [8], in experiment [9] and in [10] were more than 100 µM, 98.9 µM and more than 100 µM, respectively.

As for `N#Cc1c2c(c(Nc3cccc(C(F)(F)F)c3)n3c1nc1ccccc13)CCCC2`, the TGI in experiment [1] is more than 100 µM; in experiment [2], 31 µM; in [3], more than 100 µM; in experiment [4], 36.3 µM; in experiment [5], more than 100 µM; in [6], more than 100 µM. Further, the TGI in experiment [7] is more than 100 µM; in experiment [8] it was more than 100 µM; in experiment [9] it was 86.2 µM; in [10], more than 100 µM.

In the case of `CCOC(=O)c1cc(C2CCN(Cc3ccccc3)C2=O)c(C(=O)/C=C(/C)N)[nH]1` (stereo not given), the TGI in experiment [1], in [3], in experiment [4], in [5], in [6] and in experiment [7] was more than 100 µM in each case. The TGI in experiment [8], in experiment [9] and in [10] was more than 100 µM in each case.

As to `Cc1cnc2c(c1)C(=O)N(c1ccc(Br)cc1)S2(=O)=O`, the TGI in experiment [1], in [2], in experiment [3], in experiment [4], in experiment [5] and in [6] was more than 100 µM throughout. Besides, the TGI in [7], in experiment [8] and in [10] was more than 100 µM in each case.

With `c1cc2cc(Cc3ccc4[nH]ccc4c3)ccc2[nH]1`, the TGI came to 30.9 µM in experiment [1]; 32.9 µM in experiment [2]; 57.7 µM in experiment [3]; 32.2 µM in [4]; 31.1 µM in experiment [5]; 33.9 µM in experiment [6]. Further, the TGI in experiment [11] stood at 39.2 µM; in [8] it was 93.3 µM; in experiment [9], 37.7 µM; in [10], 78.9 µM.

As for `COc1c(-c2ccc(F)cc2)oc2c(CC(=O)O)cccc2c1=O`, the TGI in [2], in experiment [3], in experiment [4], in experiment [6], in experiment [11] and in experiment [9] was more than 100 µM throughout. Besides, the TGI in [10] was more than 100 µM.

In the case of `CN(C)C1(N(C)C)Oc2c(c(=O)n(C)c(=O)n2C)C(c2ccc(F)cc2)C1(F)F` (stereo not given), the TGI in experiment [1], in experiment [3], in [4], in experiment [5], in experiment [6] and in experiment [7] was more than 100 µM throughout. Besides, the TGI in experiment [8], in [9] and in experiment [10] was more than 100 µM throughout.

With `COc1ccc(C(SCCO)(c2ccc(OC)cc2)c2ccc(OC)cc2)cc1`, the TGI in experiment [1] turned out to be 71.1 µM; in [2] it was 30.6 µM; in experiment [3] it was 32.5 µM; in [4] it was 44.6 µM; in experiment [5], 35.8 µM; in experiment [6], 25.7 µM. For the same compound, the TGI in experiment [11] came to 26.7 µM; in experiment [8] it was 81.1 µM; in experiment [9], 30.9 µM; in experiment [10], 39.2 µM.

In the case of `O=C(NCCCN1CCN(CCCNC(=O)c2cc(-c3ccccc3)nc3ccccc23)CC1)c1cc(-c2ccccc2)nc2ccccc12`, the TGI was more than 58.2 µM in experiment [1]; 41.5 µM in experiment [2]; 5.45 µM in experiment [3]; 41.3 µM in experiment [4]; more than 64.7 µM in [5]; more than 71.3 µM in experiment [6]. The TGI was more than 57.8 µM in experiment [7], more than 29.5 µM in experiment [8], more than 60 µM in [9] and 31.6 µM in [10].

Take `CC1=NC(=O)CNN1C1=NNC2(C(=O)N1)c1ccccc1-c1ccccc12`: the TGI in [2], in [3], in experiment [4], in [5], in [6] and in [11] was more than 100 µM throughout. Moreover, the TGI in experiment [8], in experiment [9] and in experiment [10] was more than 100 µM each time.
